From ChEMBL document CHEMBL1201862, “PubChem BioAssay data set” (2004)
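Dose response: 5 concentrations. Exposure: 48 h. Format: 96-well plates. Endpoint: linear interpolation; highest concentration if not reached. GI50 marks 50% less growth.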 The source made the active and inactive calls. Cut-off read from the data, not from the text of the source: active = GI50 up to about 1.1 µM and inactive = higher.

Assays:
Test in all cases: NCI-60 cell line screen, 48 h
SK-OV-3 = tested on: SK-OV-3
SNB-19 = tested on: SNB-19
PC-3 = tested on: PC-3
M14 = tested on: M14
CCRF-CEM = tested on: CCRF-CEM
HOP-62 = tested on: HOP-62
MOLT-4 = tested on: MOLT-4
NCI/ADR-RES = tested on: NCI/ADR-RES
LOX IMVI = tested on: LOX IMVI
SF-539 = tested on: SF-539
SR = tested on: SR
RXF 393 = tested on: RXF 393
RPMI-8226 = tested on: RPMI-8226
OVCAR-5 = tested on: OVCAR-5
MDA-N = tested on: MDA-N
UACC-257 = tested on: UACC-257
ACHN = tested on: ACHN
DU-145 = tested on: DU-145
NCI-H522 = tested on: NCI-H522
K562 = tested on: K562
EKVX = tested on: EKVX
SNB-75 = tested on: SNB-75
MDA-MB-231 = tested on: MDA-MB-231
TK-10 = tested on: TK-10
IGROV-1 = tested on: IGROV-1
OVCAR-8 = tested on: OVCAR-8
HCT-15 = tested on: HCT-15
786-0 = tested on: 786-0
BT-549 = tested on: BT-549
KM12 = tested on: KM12
U-251 = tested on: U-251
COLO 205 = tested on: COLO 205
A549 = tested on: A549
NCI-H460 = tested on: NCI-H460
SK-MEL-5 = tested on: SK-MEL-5
CAKI-1 = tested on: CAKI-1
OVCAR-3 = tested on: OVCAR-3
MCF7 = tested on: MCF7
SF-295 = tested on: SF-295
UACC-62 = tested on: UACC-62
SN12C = tested on: SN12C
SF-268 = tested on: SF-268
SW-620 = tested on: SW-620
SK-MEL-2 = tested on: SK-MEL-2
HOP-92 = tested on: HOP-92
OVCAR-4 = tested on: OVCAR-4
HT-29 = tested on: HT-29
UO-31 = tested on: UO-31
HCT-116 = tested on: HCT-116
NCI-H23 = tested on: NCI-H23
Hs-578T = tested on: Hs-578T
MDA-MB-435 = tested on: MDA-MB-435
HCC 2998 = tested on: HCC 2998
A498 = tested on: A498
SK-MEL-28 = tested on: SK-MEL-28
T47D = tested on: T47D
HL-60 = tested on: HL-60

`COc1ccc(C/C=C(\C)CCO)cc1` was tested, and the GI50 (SK-OV-3) was > 100 µM (inactive), the GI50 (SNB-19) was > 100 µM (inactive) and the GI50 (PC-3) was > 100 µM (inactive). The GI50 (M14) was > 100 µM (inactive), the GI50 (CCRF-CEM) was > 100 µM (inactive) and the GI50 (HOP-62) was > 100 µM (inactive). For the same molecule, the GI50 (MOLT-4) was > 100 µM (inactive), the GI50 (NCI/ADR-RES) was > 100 µM (inactive) and the GI50 (LOX IMVI) was > 100 µM (inactive). For the same molecule, the GI50 (SF-539) was > 100 µM (inactive), the GI50 (SR) was > 100 µM (inactive) and the GI50 (RXF 393) was > 100 µM (inactive). For the same molecule, the GI50 (RPMI-8226) was 19.7 µM (inactive), the GI50 (OVCAR-5) was > 100 µM (inactive) and the GI50 (MDA-N) was > 100 µM (inactive). The GI50 (UACC-257) was > 100 µM (inactive), the GI50 (ACHN) was > 100 µM (inactive) and the GI50 (DU-145) was > 100 µM (inactive). For the same molecule, the GI50 (NCI-H522) was > 100 µM (inactive), the GI50 (K562) was > 100 µM (inactive) and the GI50 (EKVX) was > 100 µM (inactive). The GI50 (SNB-75) was > 100 µM (inactive), the GI50 (MDA-MB-231) was > 100 µM (inactive) and the GI50 (TK-10) was > 100 µM (inactive). For the same molecule, the GI50 (IGROV-1) was > 100 µM (inactive), the GI50 (OVCAR-8) was > 100 µM (inactive) and the GI50 (HCT-15) was over 100 µM. For the same molecule, the GI50 (786-0) was > 100 µM (inactive), the GI50 (BT-549) was > 100 µM (inactive) and the GI50 (KM12) was > 100 µM (inactive). For the same molecule, the GI50 (U-251) was > 100 µM (inactive), the GI50 (COLO 205) was > 100 µM (inactive) and the GI50 (A549) was > 100 µM (inactive). The GI50 (NCI-H460) was > 100 µM (inactive), the GI50 (SK-MEL-5) was > 100 µM (inactive) and the GI50 (CAKI-1) was 38.5 µM (inactive). The GI50 (OVCAR-3) was > 100 µM (inactive), the GI50 (MCF7) was > 100 µM (inactive) and the GI50 (SF-295) was > 100 µM (inactive). For the same molecule, the GI50 (UACC-62) was > 100 µM (inactive), the GI50 (SN12C) was > 100 µM (inactive) and the GI50 (SF-268) was > 100 µM (inactive). The GI50 (SW-620) was > 100 µM (inactive), the GI50 (SK-MEL-2) was > 100 µM (inactive) and the GI50 (HOP-92) was > 100 µM (inactive). For the same molecule, the GI50 (OVCAR-4) was > 100 µM (inactive), the GI50 (HT-29) was > 100 µM (inactive) and the GI50 (UO-31) was > 100 µM (inactive). For the same molecule, the GI50 (HCT-116) was > 100 µM (inactive), the GI50 (NCI-H23) was > 100 µM (inactive) and the GI50 (Hs-578T) was > 100 µM (inactive). The GI50 (MDA-MB-435) was > 100 µM (inactive).
`COc1cc2c3c(c1OC)C(=O)C(=O)C1=C3N(CCC1)CC2` was tested, and the GI50 (HCC 2998) was 36.7 µM (inactive), the GI50 (SNB-19) was 63.4 µM (inactive) and the GI50 (PC-3) was 31.5 µM (inactive). For the same molecule, the GI50 (M14) was 26.4 µM (inactive), the GI50 (CCRF-CEM) was 20.3 µM (inactive) and the GI50 (HOP-62) was 30.5 µM (inactive). For the same molecule, the GI50 (MOLT-4) was 18.9 µM (inactive), the GI50 (NCI/ADR-RES) was 56 µM (inactive) and the GI50 (LOX IMVI) was 26.7 µM (inactive). For the same molecule, the GI50 (SF-539) was 29.6 µM (inactive), the GI50 (SR) was 18.5 µM (inactive) and the GI50 (RXF 393) was 26.6 µM (inactive). For the same molecule, the GI50 (OVCAR-5) was 52.2 µM (inactive), the GI50 (UACC-257) was 28.6 µM (inactive) and the GI50 (ACHN) was 42.1 µM (inactive). For the same molecule, the GI50 (DU-145) was 38 µM (inactive), the GI50 (NCI-H522) was 19.7 µM (inactive) and the GI50 (K562) was 5.7 µM (inactive). The GI50 (EKVX) was 17.5 µM (inactive), the GI50 (MDA-MB-231) was 31.3 µM (inactive) and the GI50 (TK-10) was 70 µM (inactive). The GI50 (IGROV-1) was 28.7 µM (inactive), the GI50 (OVCAR-8) was 21.5 µM (inactive) and the GI50 (HCT-15) was 27.9 µM. For the same molecule, the GI50 (A498) was 30.3 µM (inactive), the GI50 (786-0) was 43.4 µM (inactive) and the GI50 (SK-MEL-28) was 36.9 µM (inactive). The GI50 (BT-549) was 21.8 µM (inactive), the GI50 (KM12) was 17 µM (inactive) and the GI50 (U-251) was 15.5 µM (inactive). The GI50 (COLO 205) was 10.4 µM (inactive), the GI50 (A549) was 34.8 µM (inactive) and the GI50 (NCI-H460) was 12.2 µM (inactive). For the same molecule, the GI50 (SK-MEL-5) was 33 µM (inactive), the GI50 (CAKI-1) was 32.4 µM (inactive) and the GI50 (OVCAR-3) was 23.6 µM (inactive). The GI50 (MCF7) was 14.9 µM (inactive), the GI50 (SF-295) was 23.5 µM (inactive) and the GI50 (UACC-62) was 18.1 µM (inactive). The GI50 (SN12C) was 32.4 µM (inactive), the GI50 (SF-268) was 13.2 µM (inactive) and the GI50 (SW-620) was 32.4 µM (inactive). The GI50 (T47D) was 23.2 µM (inactive), the GI50 (SK-MEL-2) was 48.9 µM (inactive) and the GI50 (HOP-92) was 19.4 µM (inactive). For the same molecule, the GI50 (OVCAR-4) was 24.2 µM (inactive), the GI50 (HT-29) was 24.3 µM (inactive) and the GI50 (UO-31) was 41 µM (inactive). For the same molecule, the GI50 (HCT-116) was 18.5 µM (inactive), the GI50 (NCI-H23) was 20.6 µM (inactive) and the GI50 (HL-60) was 19.1 µM (inactive). For the same molecule, the GI50 (Hs-578T) was 2.72 µM (inactive) and the GI50 (MDA-MB-435) was 22 µM (inactive).
